# Patent publication US7423015B1, “Antihelminthic drugs as a treatment for hyperproliferative diseases” (Board of Regents, The University of Texas System, priority 2001, dated 2008)
# How the values were obtained:
# p53 protein = test: p53 induction, immunoblot analysis of nuclear extracts; assay type: cell-based, human; settings: H460; 0.05 μg/ml, exposure 1 to 24 hr
# Description: Cells were grown in 6-cm dishes, cultured, and treated as described above. To prepare the whole-cell lysates, the medium was removed and cells were washed twice with ice-cold Tris-buffered saline (TBS) (150 mM NaCl, 10 mM Tris; pH 7.6) and lysed with 0.5 ml of lysis buffer (10 mM Tris, 150 mM NaCl, 1% Triton X-100, 5 mM EDTA, 25 mM glycerphosphate, 1 mM phenylmethylsulphonyl fluoride (PMSF), 2 mM benzamidine, […], and 1 mM sodium orthovanadate) for 15 min. The lysed cells were then transferred to 1.5 ml microtubes, centrifuged at 15,000×g for 10 min at 4° C., and the supernatants collected mixed with Laemmli's sample buffer and subjected to western blot analysis as described elsewhere (Nare et al., 1994). Blots were probed with anti-p53 monoclonal antibody Bp53-12 (Santa Cruz Biotechnology, Inc.) and the immunocomplex was detected by the Enhanced Chemiluminescence kit according to the manufacturer's directions (Amersham).
# Cell extracts were prepared from H460 cells exposed to 0.05 μg/ml FZ or MZ for various durations (1 to 24 hr). The effect of FZ and MZ on the nuclear accumulation of p53 appeared to be gradual and was not significant within the first hour of exposure. […] The appearance of p53 in response to drug treatment also coincided with the initiation of apoptosis, which was detectable by 24 hr, as well as shown earlier by TdT FACS analysis. […] Total RNA was extracted and […] was used for the analysis. p53 protein was detected by immunoblot analysis.
# SW480 = test: Cell viability, trypan blue cell count assay; assay type: cell-based; design: dose or concentration left out as unconfirmed; settings: Homo sapiens, SW480, read-out: % Cell Viability
# Description: (§1) All cell lines were grown in RPMI 1640 medium supplemented with 5% fetal bovine serum and 5% CO2. All experiments were done when the cells were 70% confluent. For cell growth measurements, 5×10^4 cells were plated in each well of six-well plates. Control and BZ-treated (0.05 μg/ml) cells were trypsinized and counted using a hemocytometer. Experiments were done in triplicate and the mean and standard deviation were determined by standard methods.
# (§2) To further investigate the relationship between the induction of functional p53 and the subsequent apoptosis mediated by these drugs, the inventors posited that if BZs require wild-type p53 in order to exert their effect, then fenbendazole and mebendazole would not be cytotoxic to the many tumor lines producing a mutated p53 protein. To investigate this possibility, human cell lines derived from NSCLC origins of differing p53 status were further analyzed by a 5-day cell growth assay. The cells were plated onto a six-well plate, and the viability of the cells was determined by trypan blue exclusion. Cells were counted on a hemocytometer. The values shown are the means ±standard deviation of triplicate samples. Duplicate experiments gave similar results. H322 is a human lung adenocarcinoma line that produces a mutant p53 protein. […] However, fenbendazole and mebendazole induced nuclear accumulation of p53 only in the H460 cell line, which carries wild-type p53 genes. […] Cells were exposed to FZ (filled bar) or MZ (hatched bar) for 24 hr. A concentration of 0.05 μg/ml FZ and MZ was used. An immunoblot analysis of nuclear p53 was also performed to determine whether these drugs induced the production of p53. Equal amounts of protein extracts from each cell line before and after treatment were used for this analysis.
# MDA 231 = test: Cell viability, trypan blue cell count assay; assay type: cell-based; design: dose or concentration left out as unconfirmed; settings: Homo sapiens, MDA-MB-231, read-out: % Cell Viability
# Description: as §1, §2
# H322 = test: Cell viability, trypan blue cell count assay; assay type: cell-based; design: dose or concentration left out as unconfirmed; settings: Homo sapiens, NCI-H322, read-out: % Cell Viability
# Description: as §1, §2
# RD = test: Cell viability, trypan blue cell count assay; assay type: cell-based; design: dose or concentration left out as unconfirmed; settings: Homo sapiens, read-out: % Cell Viability
# Description: as §1, §2
# topoisomerase I = topoisomerase I (Homo sapiens, UniProt P11387); test: Test for topoisomerase I poison effect; assay type: biochemical
# Excerpt: It has been shown recently that BZ are substrates for the P-glycoprotein transporter in multidrug-resistant tumor cells (Nare et al. 1994). It may be speculated that P-glycoprotein, which is overexpressed in several normal tissues and organs, could mediate the transport of BZ. Some terbenzimidazole compounds have been reported to be topoisomerase I poisons (Pilch et al., 1996).
# [1] = tested on: tumor vascularity of H460 xenografts (CD31); test: Immunohistochemical analysis of CD31 in H460 tumors; assay type: in vivo, nu/nu mice; settings: H460 xenografts in nude mice
# Description: Subcutaneous H460 tumors established in nu/nu mice that were either not treated or treated with MZ were harvested and fixed in 4% buffered formalin, paraffin embedded, and cut as […] thick sections. Tissue sections were stained for CD31 expression using rat anti-mouse CD31 antibody (Pharmingen) as previously described with slight modifications. Briefly, following deparafinzation and rehydration, tissue sections were treated with 0.3% H2O2 in methanol for 30 min to block endogenous peroxidase activity and were subsequently incubated with normal rat serum for 30 min at room temperature. Following incubation, slides were treated with protease for 15 min followed with rat monoclonal anti-CD31 antibody (1:1000 dilution) for 60 minutes. After 30 min incubation with anti-rat secondary antibody (provided with ABC kit, Vector) CD31 in tissues was detected with DAB by enhancement with avidin-biotin reaction ABC kit. The slides were counterstained with hematoxylin and then mounted with Aqua-mount (Lerner Labs, Pittsburgh, Pa.). The number of vascular areas staining positive for CD31 were analyzed under bright-field microscopy. A total of at least five fields per specimen were analyzed. In all the staining procedures, appropriate negative controls were included. […]
# [2] = tested on: HUVEC cell tube formation; test: HUVEC tube formation in conditioned medium; assay type: cell-based, human
# Excerpt: (§3) One of the most encouraging findings is that MZ inhibited the neovascularization in the human xenografts tested. […] The inventors have thus shown that MZ is a potent antiangiogeneic agent. It had no effect on endothelial cell growth, instead directly targeting tumor cells in vivo. MZ may be effective in the treatment of cancer and other angiogenesis-dependent diseases.
# [3] = tested on: breast, ovarian and colon carcinoma and osteosarcoma; test: In vitro proliferation assay with MZ; assay type: cell-based; settings: Homo sapiens
# VEGF = VEGF expression/secretion in H460 cell line; assay type: cell-based, human; settings: H460, treatment period 18 hours
# Description: FIG. 7. Percent Inhibition of VEGF Expression in H460 Cell Line After MZ Treatment. Treatment period was 18 hours; control (C); treatment (T).
# as §3
# topoisomerase I, sequence (P11387 whole entry): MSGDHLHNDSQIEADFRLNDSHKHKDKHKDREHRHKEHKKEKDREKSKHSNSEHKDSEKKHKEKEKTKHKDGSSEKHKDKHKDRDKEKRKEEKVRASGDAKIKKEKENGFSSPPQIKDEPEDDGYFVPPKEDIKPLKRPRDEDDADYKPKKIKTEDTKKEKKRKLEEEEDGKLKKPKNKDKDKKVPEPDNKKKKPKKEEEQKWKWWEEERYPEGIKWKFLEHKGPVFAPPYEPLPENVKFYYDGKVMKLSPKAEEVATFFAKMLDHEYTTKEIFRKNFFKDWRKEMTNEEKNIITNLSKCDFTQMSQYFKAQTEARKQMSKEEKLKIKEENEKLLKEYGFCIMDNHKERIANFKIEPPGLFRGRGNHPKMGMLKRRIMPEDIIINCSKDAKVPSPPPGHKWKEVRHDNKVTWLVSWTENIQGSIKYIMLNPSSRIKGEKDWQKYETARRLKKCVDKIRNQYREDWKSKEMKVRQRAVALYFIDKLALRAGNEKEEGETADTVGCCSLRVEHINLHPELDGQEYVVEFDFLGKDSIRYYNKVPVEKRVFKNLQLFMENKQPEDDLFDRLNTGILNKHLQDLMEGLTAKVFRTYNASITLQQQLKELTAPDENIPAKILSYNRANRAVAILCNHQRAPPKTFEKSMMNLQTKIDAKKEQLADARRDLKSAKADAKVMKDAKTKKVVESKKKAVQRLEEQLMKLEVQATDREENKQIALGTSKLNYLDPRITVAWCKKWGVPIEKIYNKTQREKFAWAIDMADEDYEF
SMILES,time at which nuclear accumulation of p53 became significantly detectable (p53 protein),time at which nuclear accumulation of p53 peaked (p53 protein) [h],viability (SW480) [%],viability (MDA 231) [%],viability (H322) [%],viability (RD) [%],topoisomerase I poison effect (topoisomerase I),"neovascularization (blood vessel density, CD31) [1]",HUVEC cell tube formation [2],IC50 [3] [nM],VEGF secretion (VEGF)
"COC(=O)Nc1nc2ccc(Sc3ccccc3)cc2[nH]1 [Fenbendazole, methy 5-(phenylthio)-2-benzimidazole-2-carbamate]",about 16 hr,24,70.6 ± 7.6,65.3 ± 5,65.9 ± 4.9,78.7 ± 12,–,–,–,–,–
"COC(=O)Nc1nc2ccc(C(=O)c3ccccc3)cc2[nH]1 [Mebendazole, Methyl 5-benzoylbenzimidazole-2-carbamate]",about 16 hr,24,63.6 ± 13.3,66.2 ± 15.8,68.5 ± 3.7,72.2 ± 2.8,could not detect any,profoundly reduced,inhibited,100 to 800,marked down-regulation
